In patent US20090170759A1, “NEUROPROTECTIVE PEPTIDES” (priority 2007, published 2009):
“Also recorded” adds a separate entry of the source.

What was measured:
bclXL = assay: EPO induced gene expression in PC12 cells, quantitative RT-PCR (bclXL); format: cell-based, rat; conditions: PC-12 cells
Description: (§1) PC-12 cells (from a rat Pheochromocytoma) were cultured on poly-D-Lysine coated tissue culture plastic in DMEM containing 10% FBS and 5% Horse serum. To induce the neuronal phenotype in PC-12 cells, serum was removed and the cells were treated with NGF (50 ng/ml). Cells were grown for 7 days in the presence of the NGF then used for experiments.
PC-12 cells were cultured as described in Example 1 in a 10 cm poly-D-lysine coated tissue culture dish. Cells were incubated in the presence of 1 U/ml of EPO for 24 hr. Total RNA was then isolated using a Qiagen RNAeasy mini prep kit and used for RT-PCR.
(§2) Real time reverse transcription and PCR were performed in a single reaction using a light cycler and an RNA amplification kit from Roche Molecular Biochemicals. RNA was quantitated and added in equal amounts to reaction mix that includes the dsDNA specific dye SYBR green I. Specific PCR reaction products are quantitated by detecting the amount of fluorescence in the reaction at each PCR cycle. Final analysis was performed using the data analysis software included with the light cycler instrument.

rat hippocampal cultures = assay: Neurite outgrowth assay (MAP2-FITC immunofluorescence), hippocampal cultures; format: cell-based
From the text: Dissociated hippocampal and cortical cell cultures were established from embryonic day 18 rat fetuses as previously described (Mattson et al., 1994). Briefly, fetuses were removed via cesarean section from pregnant moms (Sprague-Dawley) anesthetized with halothane according to the AVMA Panel on Euthanasia. Pups were decapitated and the brains were removed and placed in HEPES-buffered Hank's Balanced Salt solution (HBSS; Gibco). The hippocampi and cortices were dissected out and pooled according to tissue-type. Tissue was trypsinized for 15 min (1 mg/ml trypsin-HBSS; Worthington), rinsed with fresh HBSS, incubated in trypsin inhibitor (1 mg/ml; Sigma) for 5 min, rinsed again with fresh HBSS and then triturated in 1 ml fresh HBSS with a fire-polished glass pipette. Dissociated cells were seeded at 30,000 cells/well onto poly-D-lysine coated 96-well plates (Collaborative BioScience). Each well contained 100 μl of Eagle's Minimal Essential Media (MEM; Gibco) supplemented with 26 mM NaHCO3 (Sigma), 56 mM glucose (Sigma), 15 mM KCl (Sigma), 1 mM sodium pyruvate (Sigma), 1.1 mM L-glutamine (Sigma), 10% (v/v) heat-inactivated fetal bovine serum (Hyclone), and 0.001% gentamicin sulfate (Sigma) (pH 7.4). Cells were allowed to attach for 24 h in a humidified 37° C. 5% CO2 incubator before experimental treatment. The culture media was aspirated and exchanged with fresh media every three days.
Twenty-four hours after plating, cultures were treated with vehicle (PBS+0.1% BSA), 100 ng of various growth factors (brain derived neurotrophic factor (BDNF; Promega), glial-derived neurotrophic factor (GDNF; Promega), nerve growth factor (NGF; Boehringer Mannheim), basic fibroblast growth factor (bFGF; Boehringer Mannheim), insulin-like growth factor-1 (IGF-1; Boehringer Mannheim), neurotrophin-3 (NT3; Calbiochem), neurotrophin-4 (NT4; Calbiochem), ciliary neurotrophic factor (CNTF; Calbiochem), epidermal growth factor (EGF; Calbiochem), vascular endothelial growth factor (VEGF; Calbiochem)), or rhEPO (prepared same as above; 10 fM-10 nM)). Each treatment condition was run in quadruplicate or octuplicate. On the third day in culture, the media was aspirated off and replaced with fresh media and test compound. At one week in culture, the cells were fixed with 10% phosphate-buffered formalin for 15 min, then rinsed with DPBS (Sigma) and placed in blocking serum for 30 min (horse serum; 1:50 dilution in DPBS; Vector Labs). Cultures were rinsed again with DPBS and then incubated in primary antibody for 2 hr (microtubule-associated protein-2 (MAP-2) is a selective marker for dendritic processes; anti-mouse monoclonal (Chemicon); 1:1000 dilution of MAP-2 in antibody diluent (Zymed)). Negative control wells were incubated in antibody diluent alone. Background signal was determined by blank wells (cell-free) incubated with or without antibody. Cultures were rinsed again with DPBS and then placed in fluorescein for 1 hr (FITC; anti-mouse IgG; rat adsorbed; 1:50 dilution in DPBS; Vector Labs). Cultures were rinsed a final time with DPBS and then the plates were read on a Cytofluor 4000 fluorescence plate reader. Neurite outgrowth was expressed as percent change from control (vehicle; mean fluorescence±SD).
Dissociated hippocampal and cortical cell cultures were established from embryonic day 18 rat fetuses as previously described (Mattson et al., 1994). Briefly, fetuses were removed via cesarean section from pregnant moms (Sprague-Dawley) anesthetized with halothane according to the AVMA Panel on Euthanasia. Pups were decapitated and the brains were removed and placed in HEPES-buffered Hank's Balanced Salt solution (HBSS; Gibco). The hippocampi and cortices were dissected out and pooled according to tissue-type. […]

[1] = Plasma determinations by EPO ELISA; format: in vivo, rat; conditions: terminal sample
From the text: Plasma Determinations: Blood samples were collected from each rat via the orbital sinus at the time of sacrifice. Plasma was separated out, frozen and analyzed by EPO ELISA for determination of plasma concentration (U/ml).

bak = assay: EPO induced gene expression in PC12 cells, quantitative RT-PCR (bak); format: cell-based, rat; conditions: PC-12 cells
Description: as §1
PC-12 cells were cultured as described in Example 1 in a 10 cm poly-D-lysine coated tissue culture dish. […] Total RNA was then isolated using a Qiagen RNAeasy mini prep kit and used for RT-PCR.
as §2

PC-12 cells = assay: NGF withdrawal in PC-12 cells; format: cell-based, rat
Description: as §1, with “[…] cells (from” for “PC-12 cells (from”
PC-12 cells were cultured as described above in a 96 well poly-d-lysine coated multi-well plate and treated with rhEPO (1 pm to 10 nm) for 24 hr prior to NGF withdrawal. On the day of the experiment the cells were washed with buffer 3 times to remove NGF and then cultured in fresh media without NGF. Immediately following NGF washout cells were counted (t=0) to determine the number of living cells. Cell viability was based on morphological characteristics including phase brightness, presence of axons, and absence of blebbing. Cell counts were performed at 12 hr, 24 hr, 48 hr and 72 hr and the number of viable cells were scored.

[2] = 1 nm EPO for 24 hr (FIG. 3 legend)

## rhEPO: purified, recombinant human EPO (rhEPO), currently formulated and distributed under the trademarks of EPREX, ERYPO, or PROCRIT
bclXL; [2]
  increase in the expression of the anti-apoptotic gene bclXL: 6 fold
bclXL; EPO 1 U/ml for 24 hr
  increase in the expression of the anti-apoptotic gene bclXL: 6 fold
Rat hippocampal cultures; Example 3, one week in culture
  neurite outgrowth response over control, hippocampal cultures: 12-44%
Rat hippocampal cultures; figure legends
  neurite outgrowth in rat hippocampal cultures (in words): promotes neurite outgrowth
Rat hippocampal cultures; growth factors at 100 ng
  neurite outgrowth promoting activity in hippocampus compared with growth factors: superior to several growth factors including BDNF, NGF and VEGF
[1]; continuous infusion
  plasma concentrations, Study I: correlated with the protective effect
[1]; single iv bolus 1000, 2500 or 5000 U/kg
  plasma concentrations, Study II: low in each group
bak; [2]
  decrease in the expression of the pro-apoptotic Bak: greater than 5 fold
bak; EPO 1 U/ml for 24 hr
  decrease in the expression of the pro-apoptotic gene bak: 5 fold
PC-12 cells; 1 nm
  neuroprotective effect at 1 nm, growth factor withdrawal: no significant effect
PC-12 cells; 24 hr pre-treatment before NGF withdrawal
  peak / optimum concentration for the neuroprotective effect, NGF withdrawal: 10 pm
PC-12 cells; 24 hr pre-treatment, 12 hr, 24 hr, 48 hr and 72 hr after withdrawal, listed as EPO
  viable cells / cell death after NGF withdrawal (in words): significant decrease in cell death; also recorded: increased the number of viable cells at each time point
